The values below come from publication PMC7129073 (Clinical Microbiology and Infection, 2015).

In brackets after ≈: the same amount, converted by molar mass. Where two headings read alike, the source gives them in different places. Bounds are passed on as bounds.

In one data set the test system is Nocardia spp. Nature of the data set: E-test on Mueller Hinton agar, 81 clinical isolates. The format is cell-based. The note with it: for MIC50 / MIC90: Nocardia; for MIC range: read after 48 and 72 h.
The subject of data set [1] is Pseudomonas putida clinical isolates. The experiment in a line: Agar dilution MIC. The format is cell-based. (In general: Agar dilution tests growth on a series of plates holding different concentrations.)
Another data set relates to Acinetobacter. The experiment in a line: Disk diffusion. In kind it is cell-based. The note with it: 37 isolates selected as resistant to beta-lactams. In general terms: Agar diffusion results depend on both activity and mobility in agar.
The subject of a further data set is MRSA. The experiment in a line: Agar dilution MIC. The format is cell-based, Staphylococcus aureus. The note with it: for MIC50 / MIC90: Staphylococcus aureus, MRSA; for MIC range: n = 50.
Data set [2] has as its system glycopeptide intermediate Staphylococcus species (GISS). The experiment in a line: VITEK II, screening plate and E test, blood isolates. In kind it is cell-based, coagulase-negative Staphylococci. To be noted: for resistance rate: 73 GISS strains.
Data set [3] concerns methicillin resistant Staphylococcus aureus. The experiment in a line: NCCLS agar dilution MIC. The note with it: n = 53. In kind it is cell-based.
For another data set, the system named is E. faecium. The experiment in a line: E-test susceptibility. In kind it is cell-based, Enterococcus faecium.
The test system of data set [4] is viridans group streptococci (VgS) and Streptococcus bovis. The experiment in a line: Broth microdilution and disk diffusion. In kind it is cell-based. To be noted: nine species. Background: Broth dilution looks for growth in wells or tubes with falling amounts of substance.
Another data set has as its system MSSA. The experiment in a line: Agar dilution MIC. To be noted: for MIC50 / MIC90: Staphylococcus aureus, MSSA; for MIC range: n = 200. In kind it is cell-based, Staphylococcus aureus.
For the next data set, the system named is enterococci. Nature of the data set: Disk diffusion and E-test, faecal isolates of cancer patients. The note with it: 38 strains. In kind it is cell-based, Enterococcus.
A short description of data set [5]: Linezolid in paediatric oncohaematological patients, retrospective. In kind it is in vivo, human.
For a further data set, the system named is E. faecalis. Nature of the data set: E-test susceptibility. The format is cell-based, Enterococcus faecalis.
Data set [6] deals with methicillin susceptible Staphylococcus aureus. Nature of the data set: NCCLS agar dilution MIC. The format is cell-based.
Data set [7] deals with viridans group streptococci (VGS). Nature of the data set: MIC. The format is cell-based.
A further data set concerns N.gonorrhoeae. The experiment in a line: microbe, parasite or virus in culture. In kind it is cell-based. The note with it: Neisseria gonorrhoeae.
In the next data set the test system is Shigella spp. Nature of the data set: Disk diffusion, stool isolates Tehran. The format is cell-based. The note with it: 96 isolates.
Data set [8] relates to S. pneumoniae. The format is cell-based, Streptococcus pneumoniae.
In another data set the test system is Salmonella enterica. The experiment in a line: VITEK, NCCLS microdilution and disc diffusion of quinolones. The format is cell-based.
Data set [9] is described as follows: Phase 3 trial, complicated intra-abdominal infections. The format is in vivo, human.
For another data set, the system named is S. pneumoniae (SPN). Nature of the data set: NCCLS broth microdilution, fluoroquinolones 1999–2004. To be noted: Streptococcus pneumoniae, read-out: MIC90 during the six years, 1999–2004. The format is cell-based, Streptococcus pneumoniae.
The test system of another data set is S. aureus. Nature of the data set: E-test susceptibility. In kind it is cell-based, Staphylococcus aureus.
For data set [10], the system named is S. pneumoniae. The experiment in a line: PROTEKT Italy, NCCLS microdilution. In kind it is cell-based, Streptococcus pneumoniae.
In data set [11] the test system is S. pneumoniae. The experiment in a line: Broth microdilution. In kind it is cell-based, Streptococcus pneumoniae. The note with it: 275 isolates.
Data set [12] relates to Salmonella serotype Typhimurium. Nature of the data set: Disk diffusion, food isolates Spain. To be noted: n = 53. The format is cell-based.
In data set [13] the test system is Salmonella, other 49 serotypes. Nature of the data set: Disk diffusion, food isolates Spain. In kind it is cell-based. To be noted: n = 115.
The test system of data set [14] is Salmonella serotype Enteritidis. Nature of the data set: Disk diffusion, food isolates Spain. The format is cell-based. To be noted: n = 96.
Another data set relates to C. albicans. Nature of the data set: Antifungal susceptibility. In kind it is cell-based, Candida albicans.
Data set [15] relates to Streptococcus agalactiae strains P0162 and P0425. The experiment in a line: Microdilution. The format is cell-based.

For orientation: MIC50 means an inhibitory concentration at the 50% level, which refers to growth in some studies and to a panel of isolates in others. The low end stands for greater potency, the high end for weaker potency. The MIC90 is the lowest concentration that inhibits either 90% of growth or 90% of the strains tested, depending on the study. In the data set with Nocardia spp., `CN(C)c1ccc(O)c2c1C[C@H]1C[C@H]3[C@H](N(C)C)C(O)=C(C(N)=O)C(=O)[C@@]3(O)C(O)=C1C2=O` [minocycline] showed an MIC50 of 1.5 µg/mL (≈ 3.28 µM), an MIC90 of 3 µg/mL (≈ 6.56 µM) and an MIC range of 0.016 to 4 µg/mL. Besides, the MIC in [1] was above 16 µg/mL. Besides, the resistant isolates in the data set with Acinetobacter is 45.9%.

For the compound `CC(=O)NC[C@H]1CN(c2ccc(N3CCOCC3)c(F)c2)C(=O)O1` [linezolid], the MIC50 in the data set on MRSA is below 2 µg/mL; in the data set with Nocardia spp., 1 µg/mL (≈ 2.96 µM); in the data set with MSSA it was below 2 µg/mL; in data set [6] (Staphylococcus aureus), 2 µg/mL (≈ 5.93 µM); in data set [7], 1 µg/mL (≈ 2.96 µM). In addition, the MIC90 in the data set on MRSA was below 2 µg/mL; against Nocardia spp., 2 µg/mL (≈ 5.93 µM); in the data set on MSSA, below 2 µg/mL; in data set [6] (Staphylococcus aureus) it was 2 µg/mL (≈ 5.93 µM); in [7] it was 1 µg/mL (≈ 2.96 µM). The MIC range against MRSA was 2 µg/mL (≈ 5.93 µM); in [3], 1 to 32 µg/mL; against Nocardia spp., 0.047 to 3 µg/mL; against MSSA, 2 µg/mL (≈ 5.93 µM); in data set [6] (n = 41) it was 0.5 to 2 µg/mL. Besides, the “sensitivity of all GISS strains” value in [2] is reported as “all GISS strains demonstrated sensitivity”. Also, the Susceptibility in the data set with E. faecium (ICU) was 98%; with E. faecium (non-ICU) it was 99%; with E. faecalis (ICU, SRGA breakpoints, tigecycline tentative ≤2 μg/ml) it was 98%; in the data set with E. faecalis (non-ICU), 99%. For the same compound, the “% S, range between species” value in data set [4] is given as 99.1 – 100.0%. The “sensitivity of all isolated strains” value in the data set on enterococci is “All the isolated strains were sensitive”. The clinical response in [5] (10 mg/kg bid iv, combined therapy, 38/50 courses) is 76%. The “courses discontinued due to exacerbation of cytopenia” value in data set [5] (1 course) was 2%. For the same compound, the “eradication of Gram(+) organisms in mixed fungal and bacterial infection” value in data set [5] (4/50 courses) is 8%. The “complete resolution after ineffective vancomycin therapy” value in data set [5] (8/16) turned out to be 50%. Moreover, the “eradication, documented Gram(+) infection” value in data set [5] (13/13) was determined as 100%. The “complete resolution of the symptoms” value in data set [5] (34/50 courses) came out at 68%. In [7] (NCCLS), the “susceptibility of all isolates” value was “All isolates were susceptible”.

Turning to quinupristin/dalfopristin, the “sensitivity of all GISS strains” value in [2] was “all GISS strains demonstrated sensitivity”. For the same compound, in data set [4], the “% S, range between species” value is listed as 99.0 – 100.0%. In [7] (107 strains, 1990–2003), this compound yielded an MIC50 of 0.5 µg/mL and an MIC90 of 2 µg/mL.

Take `CC1COc2c(N3CCN(C)CC3)c(F)cc3c(=O)c(C(=O)O)cn1c23` (centres unmarked) [ofloxacin]: the resistance rate in [2] is 84,9%. Further, the MIC with N.gonorrhoeae (strain 76mu6) was 8 µg/mL (≈ 22.1 µM); in the data set on N.gonorrhoeae (strain 76mu10), 8 µg/mL (≈ 22.1 µM); against N.gonorrhoeae (strain 92mu6), 4 µg/mL (≈ 11.1 µM); with N.gonorrhoeae (strain 92mu13), 4 µg/mL (≈ 11.1 µM); with Salmonella enterica (read-out: NCCLS MIC, 37 NAL-R strains), 0.25 to 1 µg/mL (≈ 0.692 to 2.77 µM); in the data set on Salmonella enterica (read-out: NCCLS MIC, NAL-S strains), at most 0.06 µg/mL. This compound also came in with a sensitive in the data set on Shigella spp. of 100%. This compound also displayed a resistant in the data set with S. pneumoniae [8] of 0%. This compound also gave a resistant isolates in the data set with Acinetobacter of 43.2%.

With imipenem/cilastatin [IMI/CIS], in data set [9] (TGC 100 mg then 50 mg q12h iv, IMI/CIS 500/500 mg q6h, 5–14 days), the “clinical cure rate at TOC, ME group” value is reported as 82.4%. In data set [9] (adverse events), this compound displayed a nausea of 24.8% and a vomiting of 19.4%. Besides, the “clinical cure rate at TOC, m-mITT cohort” value in data set [9] (same regimens) is 78.2%.

With `COc1c(N2CCNC(C)C2)c(F)cc2c(=O)c(C(=O)O)cn(C3CC3)c12` (centres unmarked) [gatifloxacin], the MIC90 with S. pneumoniae (SPN) is 0.5 µg/mL (≈ 1.33 µM); against MRSA, below 4 µg/mL; against MSSA it was below 0.125 µg/mL; in data set [7], 0.25 µg/mL (≈ 0.666 µM). Further, the figures for the MIC50 (with MRSA; in the data set on MSSA; in data set [7]) were below 4 µg/mL, below 0.0625 µg/mL and 0.25 µg/mL (≈ 0.666 µM), respectively. Moreover, the MIC range against MRSA was 4 µg/mL (≈ 10.7 µM); in the data set with MSSA it was 0.0625 to 4 µg/mL (≈ 0.166 to 10.7 µM). For the same compound, the MIC in data set [1] is above 128 µg/mL. Further, the resistant isolates with Acinetobacter is on record as 83.8%.

For the compound `CC(=O)O[C@H]1C[C@@]2(C)[C@@H](C[C@@H](O)[C@H]3[C@@]4(C)CC[C@@H](O)[C@@H](C)[C@@H]4CC[C@@]32C)/C1=C(\CCC=C(C)C)C(=O)O` [fusidic acid], the Susceptibility with S. aureus (ICU, SRGA breakpoints, tigecycline tentative S ≤2 μg/ml) was found to be 91%; in the data set with S. aureus (non-ICU), 93%.

Take `CO[C@H]1/C=C/O[C@@]2(C)Oc3c(C)c(O)c4c(O)c(c(/C=N/N5CCN(C)CC5)c(O)c4c3C2=O)NC(=O)/C(C)=C\C=C\[C@H](C)[C@H](O)[C@@H](C)[C@@H](O)[C@@H](C)[C@H](OC(C)=O)[C@@H]1C` [rifampin]: the susceptible in the data set on S. pneumoniae [10] (year 1: 2002) is listed as 96.7%; in the data set with S. pneumoniae [10] (year 2: 2003), 98.9%. Also, the values for the MIC50 in the data set with MRSA and with MSSA were below 32 µg/mL and below 0.0075 µg/mL, respectively. The MIC90 in the data set with MRSA is below 32 µg/mL; with MSSA, below 0.0375 µg/mL. Besides, in [2], the resistance rate is 32,8%. Also, the Susceptibility in the data set with S. pneumoniae [11] was determined as 99.3%.

As to `C[C@H]1COc2c(C3(N)CC3)c(F)cc3c(=O)c(C(=O)O)cn1c23` [pazufloxacin], the MIC in data set [1] was above 128 µg/mL.

Take `CCN[C@@H]1C[C@H](N)[C@@H](O[C@H]2OC(CN)=CC[C@H]2N)[C@H](O)[C@H]1O[C@H]1OC[C@](C)(O)[C@H](NC)[C@H]1O` [netilmicin]: the “resistance rate (NCCLS M100-S13)” value turned out to be 4% in [12], 0% in [13] and 1% in data set [14]. This compound also registered a resistant isolates with Acinetobacter of 5.4%.

`Nc1nc(=O)[nH]cc1F` [flucitozine]: the “susceptibility of all tested strains” value in the data set with C. albicans is “susceptible”.

Take `[H]/N=C(/N)N[C@H]1[C@H](O)[C@@H](O)[C@H](O[C@@H]2O[C@@H](C)[C@](O)(C=O)[C@H]2O[C@@H]2O[C@@H](CO)[C@H](O)[C@@H](O)[C@@H]2NC)[C@@H](N/C(N)=N\[H])[C@@H]1O` [streptomycin]: the “resistance rate (NCCLS M100-S13)” value was found to be 53% in [12], 59% in data set [13] and 1% in [14]. Besides, the high-level resistance in [7] (107 strains) is 10.3%.

In the case of `C[C@@H]1CN(c2c(F)c(N)c3c(=O)c(C(=O)O)cn(C4CC4)c3c2F)C[C@H](C)N1` [sparfloxacin], the MIC in data set [15] (strain P0162 (ParC Ser79Phe, GyrA Glu85Ala)) was 4 µg/mL (≈ 10.2 µM); in [15] (strain P0425 (ParC Ser79Phe, GyrA Glu85Lys)) it was above 32 µg/mL; in data set [1] it was above 128 µg/mL.
